Values joined by “and” are separate entries in the source; they are usually repeats but may differ in a detail not shown here. Equal entries are not always repeated.
Experiments:
A2780 cells = test: Proliferation assay, A2780 (Cell Titre-Glo); assay type: cell-based; conditions: Homo sapiens; A2780, 72-hour exposure; read-out: Inhibition of A2780 cell proliferation IC50
Procedure: A2780 human ovarian carcinoma cells (ECACC #93112519) and non-adherent MOLM-13 human acute myeloid leukemia cells (DSMZ ACC 554) were seeded at a density of 3,000 cell/well (A2780) or 5,000 cells/well (MOLM-13) in a 96-well multititer plate in 150 μL of growth medium supplemented 10% fetal calf serum. After 24 hours, cell viability of one plate (zero-point plate) was determined with the Cell Titre-Glo Luminescent Cell Viability Assay (Promega), while the medium of the other plates was supplemented with the test substances in various concentrations (0 μM, as well as in the range of 0.0001-10 μM; the final concentration of the solvent dimethyl sulfoxide was adjusted to 0.1%) using a Hewlett-Packard HP D300 Digital Dispenser. Cell viability was assessed after 72-hour exposure with the Cell Titre-Glo Luminescent Cell Viability Assay (Promega). IC50 values (inhibitory concentration at 50% of maximal effect) were determined by means of a 4 parameter fit on measurement data which were normalized to vehicle (DMSO) treated cells (=100%) and measurement readings taken immediately before compound exposure (=0%).

CDK9/CycT1 = target: T1, CDK9/CycT1 (Homo sapiens, UniProt P50750); test: CDK9/CycT1 high ATP kinase assay (TR-FRET); assay type: biochemical; conditions: 2 mM ATP; for IC50: Method 1b; for Selectivity high ATP CDK9 over high ATP CDK2: IC50 (high ATP CDK2)/IC50 (high ATP CDK9): minimal values where CDK9 IC50 is at the assay limit of about 1-2 nM
T1 construct: Recombinant full-length His-tagged human CDK9 and CycT1; His; purchased Life Technologies PV4131; host or cells: insect cells
T1 sequence (P50750 whole entry): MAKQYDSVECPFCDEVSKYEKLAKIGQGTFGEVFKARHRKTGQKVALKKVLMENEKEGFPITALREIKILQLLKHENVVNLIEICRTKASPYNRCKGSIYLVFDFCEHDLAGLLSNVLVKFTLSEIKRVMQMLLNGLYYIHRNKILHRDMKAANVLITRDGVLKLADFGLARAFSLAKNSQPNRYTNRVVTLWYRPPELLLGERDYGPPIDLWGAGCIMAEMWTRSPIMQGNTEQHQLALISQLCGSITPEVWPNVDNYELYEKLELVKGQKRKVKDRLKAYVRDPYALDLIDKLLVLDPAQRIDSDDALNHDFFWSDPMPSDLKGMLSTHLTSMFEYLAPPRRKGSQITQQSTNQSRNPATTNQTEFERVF
T1 sequence (O60563 whole entry partner): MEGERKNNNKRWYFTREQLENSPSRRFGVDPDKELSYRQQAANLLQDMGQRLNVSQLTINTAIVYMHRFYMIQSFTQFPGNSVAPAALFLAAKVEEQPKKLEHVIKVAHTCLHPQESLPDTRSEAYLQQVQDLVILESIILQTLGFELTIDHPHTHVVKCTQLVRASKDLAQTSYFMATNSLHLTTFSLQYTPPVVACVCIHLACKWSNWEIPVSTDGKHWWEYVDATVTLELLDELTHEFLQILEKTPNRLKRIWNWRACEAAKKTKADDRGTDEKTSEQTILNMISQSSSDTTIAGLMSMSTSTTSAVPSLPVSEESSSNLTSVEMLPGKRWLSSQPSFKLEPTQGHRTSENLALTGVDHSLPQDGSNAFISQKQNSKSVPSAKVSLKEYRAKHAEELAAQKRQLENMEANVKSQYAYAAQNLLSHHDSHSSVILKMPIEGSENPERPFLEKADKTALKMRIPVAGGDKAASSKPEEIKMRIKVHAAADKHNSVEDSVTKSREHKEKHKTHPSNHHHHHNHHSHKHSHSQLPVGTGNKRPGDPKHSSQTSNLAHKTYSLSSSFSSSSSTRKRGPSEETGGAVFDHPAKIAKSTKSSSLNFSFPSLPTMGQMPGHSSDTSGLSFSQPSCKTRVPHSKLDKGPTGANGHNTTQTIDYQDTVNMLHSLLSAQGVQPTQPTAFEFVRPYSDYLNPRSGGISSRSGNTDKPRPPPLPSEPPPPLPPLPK
Procedure: 1b. CDK9/CycT1 High ATP Kinase Assay
CDK9/CycT1-inhibitory activity of compounds of the present invention at a high ATP concentration after preincubation of enzyme and test compounds was quantified employing the CDK9/CycT1 TR-FRET assay as described in the following paragraphs.
Recombinant full-length His-tagged human CDK9 and CycT1, expressed in insect cells and purified by Ni-NTA affinity chromatography, were purchased from Life Technologies (Cat. No PV4131). As substrate for the kinase reaction biotinylated peptide biotin-Ttds-YISPLKSPYKISEG (C-terminus in amide form) was used which can be purchased e.g. form the company JERINI peptide technologies (Berlin, Germany).
(§1) For the assay 50 nl of a 100 fold concentrated solution of the test compound in DMSO was pipetted into either a black low volume 384 well microtiter plate or a black 1536 well microtiter plate (both Greiner Bio-One, Frickenhausen, Germany), 2 μl of a solution of CDK9/CycT1 in aqueous assay buffer [50 mM Tris/HCl pH 8.0, 10 mM MgCl2, 1.0 mM dithiothreitol, 0.1 mM sodium ortho-vanadate, 0.01% (v/v) Nonidet-P40 (Sigma)] were added and the mixture was incubated for 15 min at 22° C. to allow pre-binding of the test compounds to the enzyme before the start of the kinase reaction. […] The concentration of CDK9/CycT1 was adjusted depending of the activity of the enzyme lot and was chosen appropriate to have the assay in the linear range, typical concentrations were in the range of 0.5 μg/ml. The reaction was stopped by the addition of 3 μl of a solution of TR-FRET detection reagents (0.33 μM streptavidine-XL665 [Cisbio Bioassays, Codolet, France] and 1.67 nM anti-RB(pSer807/pSer811)-antibody from BD Pharmingen [#558389] and 2 nM LANCE EU-W1024 labeled anti-mouse IgG antibody [Perkin-Elmer, product no. AD0077]) in an aqueous EDTA-solution (167 mM EDTA, 0.2% (w/v) bovine serum albumin in 100 mM HEPES pH 7.5).
(§2) The resulting mixture was incubated 1 h at 22° C. to allow the formation of complex between the phosphorylated biotinylated peptide and the detection reagents. Subsequently the amount of phosphorylated substrate was evaluated by measurement of the resonance energy transfer from the Eu-chelate to the streptavidine-XL. Therefore, the fluorescence emissions at 620 nm and 665 nm after excitation at 350 nm was measured in a TR-FRET reader, e.g. a Pherastar (BMG Labtechnologies, Offenburg, Germany) or a Viewlux (Perkin-Elmer). The ratio of the emissions at 665 nm and at […] was taken as the measure for the amount of phosphorylated substrate. The data were normalised (enzyme reaction without inhibitor=0% inhibition, all other assay components but no enzyme=100% inhibition).

CDK2/CycE = target: T2, CDK2/CycE (Homo sapiens, UniProt P24941); test: CDK2/CycE high ATP kinase assay (TR-FRET); assay type: biochemical; conditions: 2 mM ATP, Method 2b
T2 construct: GST; purchased ProQinase GmbH (Freiburg, Germany); host or cells: insect cells (Sf9)
Procedure: 2b. CDK2/CycE High ATP Kinase Assay
CDK2/CycE-inhibitory activity of compounds of the present invention at 2 mM adenosine-tri-phosphate (ATP) was quantified employing the CDK2/CycE TR-FRET (TR-FRET=Time Resolved Fluorescence Energy Transfer) assay as described in the following paragraphs.
Recombinant fusion proteins of GST and human CDK2 and of GST and human CycE, expressed in insect cells (Sf9) and purified by Glutathion-Sepharose affinity chromatography, were purchase from ProQinase GmbH (Freiburg, Germany). As substrate for the kinase reaction biotinylated peptide biotin-Ttds-YISPLKSPYKISEG (C-terminus in amid form) was used which can be purchased e.g. form the company JERINI peptide technologies (Berlin, Germany).
as §1, with “CDK2/CycE” for “CDK9/CycT1”, “about 10 ng/ml.” for “in the range of 0.5 μg/ml.”, “(0.333” for “(0.33”, “AD0077, as an alternative a Terbium-cryptate-labeled anti-mouse IgG antibody from Cisbio Bioassays can be used])” for “AD0077])”
as §2

[1] = target: T3, human PTEFb (CDK9/Cyclin T1) (Homo sapiens, UniProt P50750); test: Surface Plasmon Resonance PTEFb; assay type: binding; conditions: SPR, 37° C.; for Target residence time: 1/koff; for Kd: * = arithmetic mean of more than one value, read-out: Equilibrium dissociation constant KD
T3 construct: purchased ProQinase, Freiburg, Germany
T3 sequence (P50750 whole entry): as the sequence (P50750 whole entry) above
T3 sequence (O60563 whole entry partner): as the sequence (O60563 whole entry partner) above
Text: 8. Surface Plasmon Resonance PTEFb
The ability of the compounds according to the invention to bind human PTEFb may be determined using surface plasmon resonance (SPR). KD values and koff values may be measured using a Biacore® T200 instrument (GE Healthcare, Uppsala, Sweden).
For SPR measurements, recombinant human PTEFb (CDK9/Cyclin T1 recombinant human active protein kinase purchased from ProQinase, Freiburg, Germany) is immobilized using standard amine coupling (Johnsson B et al, Anal Biochem. 1991 Nov. 1; 198(2):268-77). Briefly, carboxymethylated dextran biosensor chips (CM7, GE Healthcare) are activated with N-ethyl-N′-(3-dimethylaminopropyl)-carbodiimide hydrochloride (EDC) and N-hydroxysuccinimide (NHS) according to the supplier's instructions. Human PTEFb is diluted in 1×HBS-EP+(GE Healthcare) and injected on the activated chip surface. Subsequently, a 1:1 solution of 1 M ethanolamine-HCl (GE Healthcare) and 1×HBS-EP is injected to block unreacted groups, resulting in approximately 4000 response units (RU) of immobilized protein. A reference surface is generated by treatment with NHS-EDC and ethanolamine-HCl. Compounds are dissolved in 100% dimethylsulfoxide (DMSO, Sigma-Aldrich, Germany) to a concentration of 10 mM and subsequently diluted in running buffer (1×HBS-EP+pH 7.4 [generated from HBS-EP+Buffer 10×(GE Healthcare): 0.1 M HEPES, 1.5 M NaCl, 30 mM EDTA and 0.5% v/v Surfactant P20], 1% v/v DMSO). For kinetic measurements, serial dilutions of compound (0.078 nM up to 25 nM) are injected over immobilized protein. Binding kinetics is measured at 37° C. with a flow rate of 100 μl/min in running buffer. Compound concentrations are injected for 70 s followed by a dissociation time of 1100 s. The resulting sensorgrams are double-referenced against the reference surface as well as against blank injections.
The double-referenced sensorgrams are fit to a simple reversible Langmuir 1:1 reaction mechanism as implemented in the Biacore® T200 evaluation software 2.0 (GE Healthcare). In cases were full compound dissociation has not occurred at the end of the dissociation phase, the Rmax parameter (response at saturation) is fit as local variable. In all other cases, Rmax is fit as global variable.

bronchospasms = conditions: in vivo; cited from earlier work

SMILES: CS(=N)(=O)Cc1cc2nc(c1)OCCCCNc1cc(ccc1F)-c1cc(ncc1F)N2 (racemic) [Example 6, (rac)-3,20-difluoro-10-[(S-methylsulfonimidoyl)methyl]-13-oxa-5,7,18,24-tetraazatetracyclo[17.3.1.1^2,6.1^8,12]pentacosa-1(23),2(25),3,5,8(24),9,11,19,21-nonaene]
- IC50 (A2780 cells): 6.7 nM
- IC50 (CDK9/CycT1): 4 nM
- Selectivity high ATP CDK9 over high ATP CDK2: IC50 (high ATP CDK2)/IC50 (high ATP CDK9) (CDK9/CycT1): 6.3
- IC50 (CDK2/CycE): 25 nM

SMILES: CS(=N)(=O)Cc1cc2cc(c1)OCCCCNc1cc(ccc1F)-c1nc(ncc1F)N2 (single isomer, unassigned) [Example 9, 3,20-difluoro-10-[(S-methylsulfonimidoyl)methyl]-13-oxa-5,7,18,25-tetraazatetracyclo[17.3.1.1^2,6.1^8,12]pentacosa-1(23),2(25),3,5,8(24),9,11,19,21-nonaene]
- Target residence time ([1]; * = arithmetic mean): > 208 min
- Kd [1]: 0.046 nM and 0.022 nM and 0.015 nM and 0.062 nM and 0.11 nM and 0.031 nM and 0.07 nM and 0.054 nM
- IC50 (CDK9/CycT1): 2.3 nM
- Selectivity high ATP CDK9 over high ATP CDK2: IC50 (high ATP CDK2)/IC50 (high ATP CDK9) (CDK9/CycT1): 37
- IC50 (CDK2/CycE): 85 nM

SMILES: CS(=N)(=O)Cc1cc2cc(c1)OCCCCCNc1cc(ccc1F)-c1nc(ncc1F)N2 (racemic) [Example 5, (rac)-3,21-difluoro-10-[(S-methylsulfonimidoyl)methyl]-13-oxa-5,7,19,26-tetraazatetracyclo[18.3.1.1^2,6.1^8,12]hexacosa-1(24),2(26),3,5,8(25),9,11,20,22-nonaene]
- IC50 (A2780 cells): 3.4 nM
- IC50 (CDK9/CycT1): 1.6 nM
- Selectivity high ATP CDK9 over high ATP CDK2: IC50 (high ATP CDK2)/IC50 (high ATP CDK9) (CDK9/CycT1): 216
- IC50 (CDK2/CycE): 357 nM

SMILES: CSCc1cc2cc(c1)OC(C)CCCNc1cc(ccc1F)-c1nc(ncc1F)N2 (racemic) [Example 7, (rac)-3,20-difluoro-14-methyl-10-[(methylsulfanyl)methyl]-13-oxa-5,7,18,25-tetraazatetracyclo[17.3.1.1^2,6.1^8,12]pentacosa-1(23),2(25),3,5,8(24),9,11,19,21-nonaene]
- IC50 (A2780 cells): 71 nM
- IC50 (CDK9/CycT1): 3.9 nM
- Selectivity high ATP CDK9 over high ATP CDK2: IC50 (high ATP CDK2)/IC50 (high ATP CDK9) (CDK9/CycT1): 762
- IC50 (CDK2/CycE): 2980 nM

SMILES: CS(=N)(=O)Cc1cc2cc(c1)OCCCCNc1cc(ccc1F)-c1nc(ncc1F)N2 (single isomer, unassigned) [Example 10, 3,20-difluoro-10-[(S-methylsulfonimidoyl)methyl]-13-oxa-5,7,18,25-tetraazatetracyclo[17.3.1.1^2,6.1^8,12]pentacosa-1(23),2(25),3,5,8(24),9,11,19,21-nonaene]
- Target residence time ([1]; * = arithmetic mean): 37* min
- Kd [1]: 0.15 nM
- Dissociation rate constant koff ([1]; * = arithmetic mean, < = below what is resolvable): 4.5E−4* 1/s
- IC50 (CDK9/CycT1): 1.6 nM
- Selectivity high ATP CDK9 over high ATP CDK2: IC50 (high ATP CDK2)/IC50 (high ATP CDK9) (CDK9/CycT1): 79
- IC50 (CDK2/CycE): 130 nM

SMILES: CC(C)(C)OC(=O)N=S(C)(=O)Cc1cc2cc(c1)OCCCCCNc1cc(ccc1F)-c1nc(ncc1F)N2 (racemic) [Example 4, (rac)-tert-butyl [{[3,21-difluoro-13-oxa-5,7,19,26-tetraazatetracyclo[18.3.1.1^2,6.1^8,12]hexacosa-1(24),2(26),3,5,8(25),9,11,20,22-nonaen-10-yl]methyl}(methyl)oxido-λ^6-sulfanylidene]carbamate]
- IC50 (A2780 cells): 31 nM
- IC50 (CDK9/CycT1): 1.4 nM
- Selectivity high ATP CDK9 over high ATP CDK2: IC50 (high ATP CDK2)/IC50 (high ATP CDK9) (CDK9/CycT1): 2740
- IC50 (CDK2/CycE): 3670 nM

SMILES: C[N+]1(C)[C@@H]2C[C@@H](OC(=O)C(O)(c3cccs3)c3cccs3)C[C@H]1[C@@H]1O[C@@H]12 [tiotropium]
- protection against bronchospasms (duration) (bronchospasms): more than 6 hours

From patent US11691986B2, “PTEFB inhibiting macrocyclic compounds” (Bayer Aktiengesellschaft, priority 2017, dated 2023)
